{
  "source": "patent US5215769A",
  "about": "“Calcium fortified dressing salad product” (The Procter & Gamble Company, priority 1992, dated 1993)",
  "key": {"[1]": {"assay": "Bioavailability of calcium citrate malate (statement)", "conditions": "even under neutral conditions"}, "physchem": {"assay": "physchem", "text": "The exact method for determining this is described hereinafter.\nThe method of solubility used to determine the data in Table I, is described in the Analytical Methods section below."}},
  "data": [
    {"compound": "calcium citrate malate", "values": [
      {"measurement": "bioavailability", "setting": "[1]", "result": "bioavailable"}
    ]},
    {"compound": "O=C(O)CC(O)C(=O)O", "note": "(racemic) [calcium malate]", "values": [
      {"measurement": "solubility", "setting": "physchem", "result": 660, "unit": "mg/mL"}
    ]}
  ]
}
